In patent publication US6911468B2, “Tyrosine phosphatase inhibitors” (Takeda Chemical Industries, Ltd., priority 2000, dated 2005):

Legend:
PTP1B = molecular target: T1, PTP1B (Homo sapiens, UniProt P18031); assay: Measurement of PTP1B Inhibitory Activity (dephosphorylation of p-nitrophenylphosphate, absorbance at 405 nm); type: biochemical; settings: PTP1B enzyme active domain (1-321 amino acid, 6 histidine residues at C-terminal), pNPP substrate, pH 6.5, 37° C. for 1 hour
T1 construct: in order to express 1-321 amino acid region encoding enzyme active domain of PTP1B; made in house; host or cells: E. coli BL21 DE3 pLysS
T1 sequence (P18031 1-321): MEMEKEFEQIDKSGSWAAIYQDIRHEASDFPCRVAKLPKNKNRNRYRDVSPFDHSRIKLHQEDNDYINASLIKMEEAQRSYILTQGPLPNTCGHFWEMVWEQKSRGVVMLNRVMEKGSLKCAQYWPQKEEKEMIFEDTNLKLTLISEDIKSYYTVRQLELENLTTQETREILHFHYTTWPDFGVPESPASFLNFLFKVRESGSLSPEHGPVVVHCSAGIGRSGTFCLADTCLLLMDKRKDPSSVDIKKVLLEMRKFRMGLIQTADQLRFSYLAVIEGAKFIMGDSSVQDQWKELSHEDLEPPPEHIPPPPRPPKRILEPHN
Procedure: Based on the sequence of human PTP-1B registered in Genbank (M31724) database, primer 1 and primer 2 were synthesized, and PTP1B cDNA was amplified from human skeletal muscle cDNA library (Clonetech, Inc. HL5002a) according to PCR method using these primers. The cycle of reactions at 98° C. for 10 seconds, at 58° C. for 30 seconds and at 72° C. for 90 seconds was repeated 35 cycles. The PCR reaction product (1322 bp) was cloned to pT7 Blue-T vector (Novagen, Inc.) to identify the base sequence.
Human PTP 1B cDNA (1322 bp) (100 ng) was amplified with primer 3 and primer 4 in order to express 1-321 amino acid region encoding enzyme active domain of PTP1B. The PCR reaction product (976 bp) was cloned to pT7 Blue-T vector (Novagen, Inc.) to identify the base sequence.
The pT7 Blue-T vector-human PTP1B cDNA (976 bp) was cleaved with restriction enzymes NdeI and SalI (Takara Shuzo Co., Ltd.) and subjected to electrophoresis using 0.7% agarose gel, and a 969 bp fragment was excised and purified. The fragment was introduced into pET32a (+) vector (Novagen, Inc.) cleaved with restriction enzymes NdeI and XhoI (Takara Shuzo Co., Ltd.), to constitute a vector pET32a (+)-human PTP1B cDNA (969 bp), which expresses PTP1B (321 amino acid) with 6 histidine residues binded to a C-terminal thereof under a control of T7 lac promotor.
E.coli BL21 DE3 pLysS (Novagen, Inc.) was transformed with the pET32a (+)-human PTP 1B cDNA (969 bp) to give an ampicillin (50 μg/ml) resistant bacterium. This was shake cultured at 37° C. using 5L of 2xYT medium (ampicillin (50 μg/ml)). When OD600nm reached to 0.5, IPTG (Isopropyl b-D-Thiogalactoside) was added to the culture medium so as to be 1 mM in order to induce the expression of protein, and this medium was further cultured at 37° C. overnight. The bacterium was collected by centrifugation (8000 rpm, 10 minutes, 4° C.).
The bacterium was suspended in lysis buffer (50 ml) (20 mM Tris HCl (pH 8.0), 0.5 M NaCl, 1 mM PMSF, 5 mM benzamidine, Lysozyme 5 mg) and crushed by sonication. To the supernatant after centrifuging (12000 rpm, 10 minutes, 4° C.) was added imidazole so as to be 50 mM and the mixture was mixed with His Bind resin (Novagen, Inc.) binded with Ni ion (4° C., overnight). The mixture was washed with 200 ml of (20 mM Tris HCl (pH 8.0), 0.5 M NaCl, 1 mM PMSF, 5 mM benzamidine, 50 mM imidazole), eluted with (20 mM Tris HCl (pH 8.0), 0.5 M NaCl, 1 mM PMSF, 5 mM benzamidine, 400 mM imidazole) and concentrated by centrifugation using Ultrafree-15 Biomax-50 (MILLIPORE Corp.) (11 mg/ml, 4ml). The purified protein (PTP1B) was identified by Western blotting method using SDS-PAGE, coomassie Blue stain and anti-PTP1B antibody (UBI Inc.).
The PTP1B inhibitory activity of the test compound was evaluated by measuring the ability of the test compound to dephosphorylate p-nitrophenylphosphate (pNPP) (a change of the absorbance at 405 nm).
To a buffer for measurement of the activity (0.1 M sodium acetate (pH 6.5), 1 mM EDTA, 10 mM DTT) (10 ml) was added PTP1B enzyme solution (2 μl) and the mixture was added to each well of a 96-well microtiter plate (100 μl each). A solution of the test compound in DMSO (10 μl) and 2 mM pNPP/the buffer for measurement of the activity (90 μl) were then added to each well, and the absorbance at 405 nm was measured. After keeping at 37° C. for 1 hour, the absorbance was measured again to evaluate a change of the absorbance. Regarding the change of the absorbance in the absence of the test compound as 100%, the concentration of the compound necessary for 50% inhibition (IC50 value) was calculated.

| Compound | melting point [°C] | IC50 (PTP1B) [nM] |
| --- | --- | --- |
| CCCCCCCCCCNC(=O)c1cc(-c2ccc(O[C@H](Cc3ccccc3)C(=O)O)cc2)n(CCc2ccc(Br)cc2)c1C [Example 118, (2R)-2-{4-[1-(4-Bromophenethyl)-4-(decylaminocarbonyl)-5-methyl-1H-pyrrol-2-yl]phenoxy}-3-phenylpropanoic acid] | 132 to 133 |  |
| O=C(O)/C=C/c1ccc(-c2cccn2-c2ccc(/C=C/C(=O)O)cc2)cc1 [Example 12, (E)-3-[4-(1-{4-[(E)-3-Hydroxy-3-oxo-1-propenyl]phenyl}-1H-pyrrol-2-yl)phenyl]-2-propenoic acid] | > 300 | 3100 |
| CCCc1ccc(-c2ccc(O[C@H](Cc3ccccc3)C(=O)O)cc2)n1-c1ccc(Br)cc1 [Example 34, (2R)-2-{4-[1-(4-Bromophenyl)-5-propyl-1H-pyrrol-2-yl]phenoxy}-3-phenylpropanoic acid] |  | 1100 |
| Cc1ccc(-c2ccc(O[C@H](Cc3ccccc3)C(=O)O)cc2)n1Cc1cccc(Oc2ccccc2)c1 [Example 54, (2R)-2-{4-[1-(3-phenoxybenzyl)-5-methyl-1H-pyrrol-2-yl]phenoxy}-3-phenylpropanoic acid] |  | 310 |
| Cc1ccc(-c2ccc(O[C@@H](Cc3ccccc3)C(=O)O)cc2)n1-c1ccc(Br)cc1 [Example 50, (2S)-2-{4-[1-(4-Bromophenyl)-5-methyl-1H-pyrrol-2-yl]phenoxy}-3-phenylpropanoic acid] |  | 940 |
| CCc1ccc(-c2ccc(O[C@H](Cc3ccccc3)C(=O)O)cc2)n1-c1ccc(Br)cc1 [Example 20, (2R)-2-{4-[1-(4-bromophenyl)-5-ethyl-1H-pyrrol-2-yl]phenoxy}-3-phenylpropanoic acid] |  | 530 |
| CCCCCCCCc1ccc(-n2c(C)ccc2-c2ccc(O[C@H](Cc3ccccc3)C(=O)O)cc2)cc1 [Example 94, Sodium (2R)-2-([4-[1-(4-octylphenyl)-5-methyl-1H-pyrrol-2-yl]phenyl]oxy)-3-phenylpropanoate] |  | 90 |
| Cc1ccc(-c2ccc(O[C@H](Cc3ccccc3)C(=O)O)cc2)n1-c1ccc(Cl)cc1 [Example 44, (2R)-2-{4-[1-(4-chlorophenyl)-5-methyl-1H-pyrrol-2-yl]phenoxy}-3-phenylpropanoic acid] |  | 330 |
| O=C(O)[C@@H](Cc1ccccc1)Oc1ccc(-c2cccn2-c2ccc(C(F)(F)F)cc2)cc1 [Example 42, (2R)-2-{4-[1-(4-Trifluoromethylphenyl)-1H-pyrrol-2-yl]phenoxy}-3-phenylpropanoic acid] |  | 4900 |
